In ChEMBL document CHEMBL1131212, “Synthesis and adrenergic activity of a new series of N-aryl dicyclopropyl ketone oxime ethers: SAR and stereochemical aspects” (J Med Chem, 1998):

Key:
[1] = molecular target: T1, Adrenergic receptor alpha-1 (Rattus norvegicus, UniProt P15823+P23944+P43140); test: Inhibition of alpha-1 adrenergic receptor isolated from rat ventricle homogenates
T1 sequence (P15823 whole entry): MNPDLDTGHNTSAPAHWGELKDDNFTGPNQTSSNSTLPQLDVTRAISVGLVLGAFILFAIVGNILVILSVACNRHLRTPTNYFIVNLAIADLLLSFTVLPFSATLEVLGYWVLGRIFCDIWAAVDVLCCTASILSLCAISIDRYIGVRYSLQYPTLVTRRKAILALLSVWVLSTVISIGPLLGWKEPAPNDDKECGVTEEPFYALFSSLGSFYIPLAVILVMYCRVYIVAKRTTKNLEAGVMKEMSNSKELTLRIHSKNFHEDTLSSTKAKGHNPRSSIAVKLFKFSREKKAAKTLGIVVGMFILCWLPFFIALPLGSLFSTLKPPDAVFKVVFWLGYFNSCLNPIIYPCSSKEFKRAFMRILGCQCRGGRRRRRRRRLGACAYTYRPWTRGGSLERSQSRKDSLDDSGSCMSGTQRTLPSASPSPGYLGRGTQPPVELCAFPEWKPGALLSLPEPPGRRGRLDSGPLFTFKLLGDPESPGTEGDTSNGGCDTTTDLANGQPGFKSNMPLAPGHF
T1 sequence (P23944 whole entry): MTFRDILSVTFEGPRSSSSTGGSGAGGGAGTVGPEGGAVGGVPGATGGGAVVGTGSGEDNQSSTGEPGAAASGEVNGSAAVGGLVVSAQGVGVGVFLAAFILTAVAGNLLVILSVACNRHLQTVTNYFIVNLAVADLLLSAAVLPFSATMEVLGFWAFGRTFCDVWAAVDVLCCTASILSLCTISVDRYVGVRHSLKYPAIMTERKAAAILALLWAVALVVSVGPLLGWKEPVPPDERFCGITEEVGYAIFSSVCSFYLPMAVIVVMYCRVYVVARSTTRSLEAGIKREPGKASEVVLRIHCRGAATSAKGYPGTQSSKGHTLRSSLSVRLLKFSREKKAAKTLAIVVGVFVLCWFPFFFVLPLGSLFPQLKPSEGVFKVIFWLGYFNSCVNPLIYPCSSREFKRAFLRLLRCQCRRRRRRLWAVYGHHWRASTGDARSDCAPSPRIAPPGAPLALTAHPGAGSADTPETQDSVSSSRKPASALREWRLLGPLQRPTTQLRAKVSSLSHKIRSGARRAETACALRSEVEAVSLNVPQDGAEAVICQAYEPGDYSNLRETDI
T1 sequence (P43140 whole entry): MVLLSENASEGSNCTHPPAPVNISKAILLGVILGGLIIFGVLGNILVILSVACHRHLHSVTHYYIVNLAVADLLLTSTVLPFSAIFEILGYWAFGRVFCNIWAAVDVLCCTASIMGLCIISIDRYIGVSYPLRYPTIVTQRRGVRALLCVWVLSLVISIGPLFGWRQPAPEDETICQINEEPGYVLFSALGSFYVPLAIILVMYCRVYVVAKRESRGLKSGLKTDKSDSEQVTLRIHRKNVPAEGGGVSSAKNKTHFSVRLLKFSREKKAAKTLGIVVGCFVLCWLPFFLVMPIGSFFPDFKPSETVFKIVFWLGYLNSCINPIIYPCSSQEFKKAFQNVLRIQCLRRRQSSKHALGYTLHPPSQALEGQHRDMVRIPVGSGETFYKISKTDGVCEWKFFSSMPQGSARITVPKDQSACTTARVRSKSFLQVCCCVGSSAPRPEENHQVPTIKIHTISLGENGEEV

Adrenergic receptor beta = Adrenergic receptor beta (Rattus norvegicus, UniProt P18090+P10608+P26255); test: Inhibition of beta adrenergic receptor isolated from rat ventricle homogenates.
Cavia porcellus [2] = organism: Cavia porcellus; test: Chronotropic effect studied in right atria isolated from guinea pig and is expressed in pA2.; settings: read-out: pA2 (converted)
Rattus norvegicus [3] = organism: Rattus norvegicus; test: The compound was tested for percent increase in heart rate with respect to that measured after isoprenaline in 5-10 animals.; type: functional
Rattus norvegicus [4] = test: Tested for MED (smallest dose giving maximum effect) evaluated by dose-response curve, from 0.1 to 5 mg/kg in 5-10 animals on iv administration.; type: functional; settings: dose mg/kg 0.1-5
Cavia porcellus [5] = organism: Cavia porcellus; test: Ionotropic effect in electrically driven left atrial preparation (Atria isolated from guinea pig) and is expressed in pA2.; settings: Cardiac atrium, read-out: pA2 (converted)
[6] = molecular target: Adrenergic receptor beta (Rattus norvegicus) (UniProt P18090+P10608+P26255)
Description: In vitro inhibitory specificity for Beta adrenergic receptor was evaluated

Rattus norvegicus [7] = organism: Rattus norvegicus; test: The compound was tested for percent increase in heart rate with respect to that measured after isoprenaline in 5-10 animals and showing significant increase (p <= 0.05) with respect to baseline values (293 +/- 7 to 310 +/- 5 […]).; type: functional
[8] = molecular target: Beta-1 adrenergic receptor (Cavia porcellus); test: Beta-1 adrenergic receptor-Antagonism in isolated guinea pig atria. ( for R-enantiomer); settings: read-out: pA2 app (converted)

Structure (SMILES): OC(CNc1ccncc1)CON=C(C1CC1)C1CC1 (stereo not given)
- IC50 [1]: 72300 nM
- IC50 (Adrenergic receptor beta): 32.3 nM
- Kb (Cavia porcellus [2]): 63.1 nM
- Increase (Rattus norvegicus [3]): 0%
- MED (Rattus norvegicus [4]): 3.7 µmol/kg
- Kb (Cavia porcellus [5]): 251 nM
- Specificity [6]: 2240

Structure (SMILES): CC(C)(C)c1ccc(NCC(O)CON=C(C2CC2)C2CC2)cc1 (stereo not given)
- IC50 [1]: 70800 nM
- IC50 (Adrenergic receptor beta): 3.4 nM
- Kb (Cavia porcellus [2]): 12.6 nM
- Increase (Rattus norvegicus [7]): 44%
- MED (Rattus norvegicus [4]): 2 µmol/kg
- Kb (Cavia porcellus [5]): 50.1 nM
- Specificity [6]: 20800
- Kb [8]: 11 nM

Structure (SMILES): Cc1cccc(NCC(O)CON=C(C2CC2)C2CC2)n1 (stereo not given)
- Kb (Cavia porcellus [2]): 10000 nM

Structure (SMILES): O=C(O)c1ccc(NCC(O)CON=C(C2CC2)C2CC2)cc1 (stereo not given)
- IC50 [1]: 37300 nM
- IC50 (Adrenergic receptor beta): 10 nM
- Kb (Cavia porcellus [2]): 100 nM
- Increase (Rattus norvegicus [7]): 65%
- MED (Rattus norvegicus [4]): 2.3 µmol/kg
- Kb (Cavia porcellus [5]): 631 nM
- Specificity [6]: 3570

Structure (SMILES): OC(CNc1ccccn1)CON=C(C1CC1)C1CC1 (stereo not given)
- IC50 [1]: 36400 nM
- IC50 (Adrenergic receptor beta): 35.6 nM
- Kb (Cavia porcellus [2]): 79.4 nM
- Increase (Rattus norvegicus [3]): 0%
- MED (Rattus norvegicus [4]): 4.4 µmol/kg
- Kb (Cavia porcellus [5]): 63.1 nM
- Specificity [6]: 1020

Structure (SMILES): OC(CNc1ccccc1-c1ccccc1)CON=C(C1CC1)C1CC1 (stereo not given)
- IC50 [1]: > 100000 nM
- IC50 (Adrenergic receptor beta): 998 nM
- Kb (Cavia porcellus [2]): 100000 nM
- Increase (Rattus norvegicus [3]): 0%
- MED (Rattus norvegicus [4]): > 12.9 µmol/kg
- Kb (Cavia porcellus [5]): 25100 nM
- Specificity [6]: > 100

Structure (SMILES): OC(CNc1ccc(F)cc1)CON=C(C1CC1)C1CC1 (stereo not given)
- IC50 [1]: 26200 nM
- IC50 (Adrenergic receptor beta): 12.4 nM
- Kb (Cavia porcellus [2]): 631 nM
- Increase (Rattus norvegicus [7]): 74%
- MED (Rattus norvegicus [4]): 2.4 µmol/kg
- Kb (Cavia porcellus [5]): 1260 nM
- Specificity [6]: 2120

Structure (SMILES): Cc1cccc(NCC(O)CON=C(C2CC2)C2CC2)c1 (stereo not given)
- IC50 [1]: > 100000 nM
- IC50 (Adrenergic receptor beta): 501 nM
- Kb (Cavia porcellus [2]): 100 nM
- Increase (Rattus norvegicus [7]): 42%
- MED (Rattus norvegicus [4]): 9.2 µmol/kg
- Kb (Cavia porcellus [5]): 126 nM
- Specificity [6]: > 200

Structure (SMILES): Cc1ccccc1NCC(O)CON=C(C1CC1)C1CC1 (stereo not given)
- IC50 [1]: 22000 nM
- IC50 (Adrenergic receptor beta): 13 nM
- Kb (Cavia porcellus [2]): 126 nM
- Increase (Rattus norvegicus [7]): 37%
- MED (Rattus norvegicus [4]): 5.3 µmol/kg
- Kb (Cavia porcellus [5]): 251 nM
- Specificity [6]: 1690

Structure (SMILES): OC(CNc1nc2ccccc2[nH]1)CON=C(C1CC1)C1CC1 (stereo not given)
- IC50 [1]: > 100000 nM
- IC50 (Adrenergic receptor beta): 13.2 nM
- Kb (Cavia porcellus [2]): 63.1 nM
- Increase (Rattus norvegicus [3]): 10%
- MED (Rattus norvegicus [4]): 2 µmol/kg
- Kb (Cavia porcellus [5]): 100 nM
- Specificity [6]: > 7580

Structure (SMILES): OC(CNc1ccc(Cl)cc1)CON=C(C1CC1)C1CC1 (stereo not given)
- IC50 [1]: 18700 nM
- IC50 (Adrenergic receptor beta): 11.4 nM
- Kb (Cavia porcellus [2]): 39.8 nM
- Increase (Rattus norvegicus [7]): 47%
- MED (Rattus norvegicus [4]): 2.1 µmol/kg
- Kb (Cavia porcellus [5]): 126 nM
- Specificity [6]: 1640

Structure (SMILES): OC(CNc1ccc(-c2ccccc2)cc1)CON=C(C1CC1)C1CC1 (stereo not given)
- IC50 [1]: 3100 nM
- IC50 (Adrenergic receptor beta): 4.5 nM
- Kb (Cavia porcellus [2]): 10 nM
- Increase (Rattus norvegicus [7]): 70%
- MED (Rattus norvegicus [4]): 1 µmol/kg
- Kb (Cavia porcellus [5]): 39.8 nM
- Specificity [6]: 690

Structure (SMILES): OC(CNc1ccc(Br)cc1)CON=C(C1CC1)C1CC1 (stereo not given)
- IC50 [1]: 19000 nM
- IC50 (Adrenergic receptor beta): 4.1 nM
- Kb (Cavia porcellus [2]): 20 nM
- Increase (Rattus norvegicus [3]): 10%
- MED (Rattus norvegicus [4]): 2.1 µmol/kg
- Kb (Cavia porcellus [5]): 100 nM
- Specificity [6]: 4630

Structure (SMILES): Cc1ccnc(NCC(O)CON=C(C2CC2)C2CC2)c1 (stereo not given)
- IC50 [1]: 15300 nM
- IC50 (Adrenergic receptor beta): 23.9 nM
- Kb (Cavia porcellus [2]): 31.6 nM
- Increase (Rattus norvegicus [3]): 0%
- MED (Rattus norvegicus [4]): 2.6 µmol/kg
- Kb (Cavia porcellus [5]): 79.4 nM
- Specificity [6]: 640

Structure (SMILES): OC(CNc1ccccc1)CON=C(C1CC1)C1CC1 (stereo not given)
- IC50 [1]: 13000 nM
- IC50 (Adrenergic receptor beta): 3.3 nM
- Kb (Cavia porcellus [2]): 39.8 nM
- Increase (Rattus norvegicus [3]): 10%
- MED (Rattus norvegicus [4]): 2.7 µmol/kg
- Kb (Cavia porcellus [5]): 126 nM
- Specificity [6]: 3940
